From paper PMC5783947 (2018)

Assays:
[1] = tested on: add riboswitch aptamer (RNA, riboswitch) CAACGCUUCAUAUAAUCCUAAUGAUAUGGUUUGGGAGUUUCUACCAAGAGCCUUAAACUCUUGAUUAUGAAGUCUGUCGCUUUAUCC; assay: ACE-Scan microarray, ligand-induced duplex dissociation; details: 130 mM KCl, 12 mM MgCl2; 50 mM Tris, pH 7.5, 23 °C; 4 mM adenine; array-bound ACEs displaced; weaker at lower Mg2+ or 10 °C
[2] = tested on: ATP RNA aptamer (RNA, aptamer) CUUGGGUUGGGAAGAAACUGUGGCACUUCGGUGCCAGCAACCCCAU; assay: as above; details: 300 mM NaCl, 5 mM MgCl2; 20 mM Tris, pH 7.6, room temperature; 10 mM ATP; array-bound ACEs displaced
[3] = tested on: ATP DNA aptamer (with 5' extension) (DNA, aptamer) TCACTGACCTGGGGGAGTATTGCGGAGGAAGGT; assay: solution FRET dose-response, quencher strand displacement; details: 300 mM NaCl, 5 mM MgCl2; 20 mM Tris, pH 8.3, 0.1% Tween-20, 22.5 °C; BHQ-2 ACEs 5'Q-2T:9, 5'Q4T:10, 5'Q4T:12:6G, 5'Q1A:15, 5'Q-5C:9 displaced

binding [1] | binding [2] | binding [3] | Structure (SMILES)
yes | – | – | Nc1ncnc2[nH]cnc12
– | yes | yes | Nc1ncnc2c1ncn2[C@@H]1O[C@H](COP(=O)(O)OP(=O)(O)OP(=O)(O)O)[C@@H](O)[C@H]1O
